Measured values as given in US20210169883A1, “METHOD OF TREATING AGGRESSION WITH OREXIN RECEPTOR ANTAGONISTS” (Icahn School of Medicine at Mount Sinai, priority 2018, published 2021).
“Also recorded” adds a separate entry of the source. Read-outs that look alike come from different tables or passages of the source.

What was measured:
[1] = test system: putative glutamatergic LHb neurons; assay: Slice optogenetic stimulation of LHb GAD2 neurons recording; assay type: cell-based, mouse
[2] = test system: aggressive (AGG) male CD-1 mice; assay type: in vivo, mouse
Protocol: Aggression screening was performed as previously described by utilizing the resident intruder (RI) test (Golden et al., 2016b). After a minimum of one week of habituation to home cages, experimental mice were exposed to a novel C57BL/6J intruder for 3 min daily over 3 consecutive days. Each intruder presentation was performed in the home cage of the experimental mouse between 12-3 PM daily under white light conditions. During RI sessions the cage top was removed to allow for unobstructed viewing and video recording of sessions. The duration and number of screening sessions were selected to prevent induction of stress- and anxiety-related behaviors in experimental mice (Golden et al., 2016b). All RI sessions were video recorded with a digital color video camera. Two blind observers recorded (1) the latency to initial aggression and (2) the total duration of aggression. The initiation of aggression was defined by the first clear physical antagonistic interaction initiated by the resident mouse (usually a bite), not including grooming or pursuit behavior. Aggression was considered completed when the resident mouse had reoriented away from the intruder following the initiation of attack. This definition allows for slight breaks (less than 5 s) in continuous physical interaction within an aggressive bout, assuming the resident mouse has remained oriented towards the intruder throughout.
(§1) Vehicle comparison for these drugs consisted of 75% DMSO in sterile water alone. SR-9659 was dissolved in 20% DMSO in sterile water. Vehicle comparison for this drug consisted of 20% DMSO in water alone. All drugs were administered intraperitoneally (I.P.) 30 minutes before behavioral testing. All injection volumes were limited to 100 μl.
First, mice were screened for three consecutive days in the RI test. Only AGGs were selected for subsequent pharmacology experiments, as it was hypothesized that treatment with orexin antagonists would reduce aggression. […] 24 hours following the last RI test, mice were treated again with either drug or vehicle and anxiety and locomotion were assessed using the open field test.

[3] = cited from earlier work; for abuse potential: human, in vivo
male CD-1 mice [4] = assay: Social recognition test; assay type: in vivo, mouse; details: 30 mg/kg EMPA or 20 mg/kg seltorexant IP; one-way ANOVA
Protocol: as §1, with “(IP)” for “(I.P.)”
Mice were presented with two conspecific mice in a first (training) session, and then one of the two conspecific mice was replaced with an unfamiliar mouse in a second (test) session. The time spent by the test mouse investigating each conspecific mouse provided and index of social memory. This was calculated by subtracting the time spent with the novel mouse from the time spent with the familiar mouse.

[5] = test system: aggressive (AGG) CD-1 mice; assay: Resident intruder (RI) test, acute systemic EMPA (Example 1); assay type: in vivo, mouse
Protocol: Aggression screening was performed as previously described by utilizing the resident intruder (RI) test (6). After a minimum of one week of habituation to home cages, experimental mice were exposed to a novel C57BL/6J intruder for 3 min daily over 3 consecutive days. Each intruder presentation was performed in the home cage of the experimental mouse between 12-3 PM daily under white light conditions. During RI sessions the cage top was removed to allow for unobstructed viewing and video recording of sessions. The duration and number of screening sessions were selected to prevent induction of stress- and anxiety-related behaviors in experimental CD-1 or F1 hybrid mice (6). All RI sessions were video recorded with a digital color video camera. Two blind observers recorded (1) the latency to initial aggression and (2) the total duration of aggression. The initiation of aggression was defined by the first clear physical antagonistic interaction initiated by the resident mouse (usually a bite), not including grooming or pursuit behavior. Aggression was considered completed when the resident mouse had reoriented away from the intruder following the initiation of attack. This definition allows for slight breaks (less than 5 s) in continuous physical interaction within an aggressive bout, assuming the resident mouse has remained oriented towards the intruder throughout. […]

[6] = test system: aggressive (AGG) CD-1 mice; assay: Aggression conditioned place preference (CPP), systemic EMPA (Example 1); assay type: in vivo, mouse; details: EMPA 30 mg/kg I.P., vs vehicle, between-subjects
Protocol: The aggression CPP protocol was carried out according to Golden et al. (6). Briefly, this task consisted of three phases: pre-test, acquisition (conditioning), and test. Mice were acclimated to the testing facility for 1 h before all testing. All phases were conducted under red light and sound-attenuated conditions. The CPP apparatus (Med Associates) consisted of two unique conditioning chambers with a neutral middle zone that allowed for unbiased entry into either conditioning chamber at the initiation of each trial. During the pre-test phase, mice were placed into the middle chamber of the conditioning apparatus and allowed to freely explore the apparatus for 20 min. There were no group differences in bias for either chamber, and conditioning groups were balanced in an unbiased fashion to account for pre-test preference. The acquisition phase consisted of three consecutive days with two conditioning trials each day for a total of 6 acquisition trials. Morning trials (between 8-10 AM) and afternoon trials (between 3-5 PM) consisted of experimental mice confined to one chamber for 10 min while in the presence or absence of a novel C57BL/6J intruder mouse. All groups were counterbalanced for the conditioning chamber. […] Total locomotor activity was also recorded to ensure equal exploratory behavior between groups. […]

male CD-1 mice [7] = assay: Object recognition test; assay type: in vivo, mouse; details: 30 mg/kg EMPA or 20 mg/kg seltorexant IP; one-way ANOVA
Protocol: as §1, with “(IP)” for “(I.P.)”
Mice were presented with two different objects in a first (training) session, and then one of the two objects was replaced with a new object during a second (test) session. The time spent investigating each object provided an index of object recognition memory. This was calculated by subtracting the time spent with the familiar object from the time spent with the novel object.

male CD-1 mice [8] = assay: Object placement test (spatial memory); assay type: in vivo, mouse; details: 30 mg/kg EMPA or 20 mg/kg seltorexant IP; one-way ANOVA
Protocol: as §1, with “(IP)” for “(I.P.)”
Mice were presented with two of the same object in a first (training) session, and then one of the two objects was moved to a different location in the arena during a second (test) session. The time spent investigating each object provided an index of spatial memory. This was calculated by subtracting the time spent with the object in the familiar location from the time spent with the object in the novel location.

OX1R = molecular target: T1, OX1R (Homo sapiens, UniProt O43613); details: less potent; cited from earlier work
T1 sequence (O43613 1-425): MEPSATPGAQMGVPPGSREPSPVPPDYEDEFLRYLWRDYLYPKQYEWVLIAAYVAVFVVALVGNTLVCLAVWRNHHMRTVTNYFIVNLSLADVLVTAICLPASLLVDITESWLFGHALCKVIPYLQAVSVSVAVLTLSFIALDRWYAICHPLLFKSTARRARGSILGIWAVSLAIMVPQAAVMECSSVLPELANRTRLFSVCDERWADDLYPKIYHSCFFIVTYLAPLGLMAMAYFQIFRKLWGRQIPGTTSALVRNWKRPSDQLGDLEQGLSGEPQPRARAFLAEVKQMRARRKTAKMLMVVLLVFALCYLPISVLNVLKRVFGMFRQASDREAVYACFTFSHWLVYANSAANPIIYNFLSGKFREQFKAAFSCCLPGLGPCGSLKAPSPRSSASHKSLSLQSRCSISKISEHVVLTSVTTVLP

OX2R = molecular target: T2, OX2R (Homo sapiens, UniProt O43614); details: cited from earlier work
T2 sequence (O43614 1-444): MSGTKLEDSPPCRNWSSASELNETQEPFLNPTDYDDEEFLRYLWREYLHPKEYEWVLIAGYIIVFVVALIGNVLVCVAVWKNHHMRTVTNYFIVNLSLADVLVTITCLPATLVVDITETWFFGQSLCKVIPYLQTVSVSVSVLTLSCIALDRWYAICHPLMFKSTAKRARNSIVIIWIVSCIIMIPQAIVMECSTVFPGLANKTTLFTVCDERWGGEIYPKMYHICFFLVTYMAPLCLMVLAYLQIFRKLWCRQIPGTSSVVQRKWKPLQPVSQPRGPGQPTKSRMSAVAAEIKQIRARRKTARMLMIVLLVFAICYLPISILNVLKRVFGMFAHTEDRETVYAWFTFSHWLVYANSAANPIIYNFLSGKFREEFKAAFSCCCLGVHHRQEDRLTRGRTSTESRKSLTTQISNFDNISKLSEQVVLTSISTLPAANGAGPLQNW

[9] = three days of RI, daily I.P. 30 min before test, EMPA 30 mg/kg, seltorexant 20 mg/kg, suvorexant 20 mg/kg

With picrotoxin the “optically elicited monosynaptic inhibitory currents in putative glutamatergic LHb neurons” value [1] was “completely blocked”.
With Cc1ccc(-n2nccn2)c(C(=O)N2CCN(c3nc4cc(Cl)ccc4o3)CC[C@H]2C)c1 [suvorexant] the “reduction / attenuation of aggressive behavior” value ([2]; RI test, doses tested) was “some attenuation of aggression”, the “number of mice that attacked, drug vs vehicle” value ([2]; any day of RI, suvorexant 20 mg/kg I.P., SR-9659 I.P.) was “no differences” and the latency to attack [2, 9] was “only altered attack latency and duration on day 3”. For the same molecule, the “total duration of attack” value [2, 9] was “only altered attack latency and duration on day 3”, the abuse potential [3] was “low abuse potential” and the “tolerability in patient populations” value ([3]; variety of patient populations) was “well tolerated”.
For CCN(Cc1cccnc1)C(=O)CN(c1ccc(OC)nc1)S(=O)(=O)c1ccccc1C [EMPA, N-ethyl-2-[(6-methoxy-pyridin-3-yl)-(toluene-2-sulphonyl)-amino]-N-pyridin-3-ylmethyl-acetamide], the “time spent with each mouse compared to vehicle treatment (social recognition, FIG. 18A)” value (male CD-1 mice [4]) was “did not alter”, the “attack duration in RI test” value ([5]; EMPA 30 mg/kg I.P. 25 min before test, vs vehicle, within-subjects) was “reduced” and the “aggression (in RI)” value ([5]; systemic EMPA, 30 mg/kg, acute) was “reduces aggression; also recorded: reduced”. The “aggression CPP” value [6] was “reduced”, the “time spent with each object compared to vehicle treatment (object recognition memory, FIG. 18C)” value (male CD-1 mice [7]) was “did not alter” and the “effects of OxR2 antagonism on aggression, EMPA versus seltorexant” value ([2]; over the three days of RI) was “virtually indistinguishable”. The latency to attack [2, 9] was “increased”, the “total duration of attack” value [2, 9] was “reduced” and the “time spent with each object compared to vehicle treatment (spatial memory, object placement, FIG. 18B)” value (male CD-1 mice [8]) was “did not alter”.
With Cc1cc(C)nc(N2CC3CN(C(=O)c4c(F)cccc4-n4nccn4)CC3C2)n1 (stereo not shown) [seltorexant] the “time spent with each mouse compared to vehicle treatment (social recognition, FIG. 18A)” value (male CD-1 mice [4]) was “did not alter”, the “time spent with each object compared to vehicle treatment (object recognition memory, FIG. 18C)” value (male CD-1 mice [7]) was “did not alter” and the “effects of OxR2 antagonism on aggression, EMPA versus seltorexant” value ([2]; mouse, in vivo) was “virtually indistinguishable”. The latency to attack ([2]; mouse, in vivo) was “increased”, the “total duration of attack” value ([2]; mouse, in vivo) was “reduced” and the “time spent with each object compared to vehicle treatment (spatial memory, object placement, FIG. 18B)” value (male CD-1 mice [8]) was “did not alter”. For the same molecule, the abuse potential [3] was “low abuse potential”.
For orexin-B, the “potency in activating OX1R relative to orexin-A” value (OX1R) is listed as 10 fold and the “potency towards OX2R relative to orexin-A” value (OX2R) is listed as “equipotent”.
